Laboratory results published in US20260364168A1, “USE OF PROTEIN KINASE C (PKC) ACTIVATING COMPOUNDS AS AN ADJUVANT” (priority 2022, published 2026).
Where two headings read alike, the source gives them in different places. Blank lines part the entries; values can stand above or below the compound they belong to.

Key:
human PBMC cells = experiment: cytokine/chemokine gene expression (TaqMan) in human PBMC; conditions: 4 h; for fold induction at 1 µM / fold induction at 0.01 µM / fold induction at 0.03 µM / fold induction at 0.1 µM: Homo sapiens, PBMC
NFκB = NFκB luciferase reporter gene assay in HeLa-NFκB luciferase reporter cell line; type: cell-based; conditions: 16 h; for EC50: 37 °C, luciferase/CTG normalized, read-out: NFκB-luc HeLa cells EC50
Description: The PKC activator compounds were evaluated for their effect on NFκB expression using a luciferase reporter gene expression system. (The indicators “K-101,” “K101” and “K-101A” may be used interchangeably in this disclosure and appended figures).
A HeLa-NFκB luciferase reporter cell line (Wuxi Biology) was used to assess a group of PKC activator compounds for their ability to activate NFκB-driven transcription. Two sets of cells at 20000 cells/well were plated, grown overnight, and then treated for 16 h at 37 °C with DMSO, 6 doses of each compound, or TNF-α (final concentration of 10 ng/mL, positive control) in triplicates. One set of cells was assayed for luciferase activity (Promega, Cat #E1500) and the other set was assayed to determine the number of viable cells (for cell number normalization) using CellTiter-Glo (CTG) kit (Promega, Cat #G7570) according to manufacture's procedures. Normalized data (luciferase value/CTG value) were analyzed using GraphPad Prism5 to calculate EC50 for each compound (see Table 3).

[1] = 0.03 μM, vs DMSO, 240 min, 0.03 µM
[2] = 0.10 μM, vs DMSO, 240 min, 0.1 µM

- IL-6 induction compared to DMSO control (human PBMC cells): > 400 fold
Compound: CCOCc1nc2c(N)nc3ccccc3c2n1CC(C)(C)O [Resiquimod, reference compound]
- IL-12p40 expression (in words) (human PBMC cells): highly induced
- ISG15 expression (in words) (human PBMC cells): highly induced
- MX1 expression (in words) (human PBMC cells): highly induced
- OAS1 expression (in words) (human PBMC cells): highly induced
- fold induction at 1 µM (human PBMC cells; read-out: CCL2 gene relative expression): 3.73
- fold induction at 1 µM (human PBMC cells; read-out: GM-CSF gene relative expression): 8.79
- fold induction at 1 µM (human PBMC cells; read-out: IFN-α gene relative expression): 1.47
- fold induction at 1 µM (human PBMC cells; read-out: IFNγ gene relative expression): 1.28
- fold induction at 1 µM (human PBMC cells; read-out: IL-1β gene relative expression): 102
- fold induction at 1 µM (human PBMC cells; read-out: IL-2 gene relative expression): 1.21
- fold induction at 1 µM (human PBMC cells; read-out: IL-6 gene relative expression): 487
- fold induction at 1 µM (human PBMC cells; read-out: IL-8 gene relative expression): 9.87
- fold induction at 1 µM (human PBMC cells; read-out: IL-10 gene relative expression): 5.65
- fold induction at 1 µM (human PBMC cells; read-out: IL-12p40 gene relative expression): 786
- fold induction at 1 µM (human PBMC cells; read-out: IL-12p70 gene relative expression): 2.48
- fold induction at 1 µM (human PBMC cells; read-out: IL-13 gene relative expression): 3.52
- fold induction at 1 µM (human PBMC cells; read-out: IL-18 gene relative expression): 1.33
- fold induction at 1 µM (human PBMC cells; read-out: ISG15 gene relative expression): 14.8
- fold induction at 1 µM (human PBMC cells; read-out: MIP1a (CCL3) gene relative expression): 47.7
- fold induction at 1 µM (human PBMC cells; read-out: MX1 gene relative expression): 17
- fold induction at 1 µM (human PBMC cells; read-out: OAS1 gene relative expression): 12.7
- fold induction at 1 µM (human PBMC cells; read-out: TNF-α gene relative expression): 7.38

Compound: CC1=C[C@H]2[C@@]3(O)[C@H](C)C[C@]4(OC(=O)C(N)CCCCCCc5ccccc5)[C@H]([C@@H]3C=C(CO)C[C@]2(O)C1=O)C4(C)C (stereo partly drawn)
- EC50 (NFκB): 1 to 10 nM
- IL-2 gene relative expression (human PBMC cells; [1]): 3.59
- IL-13 gene relative expression (human PBMC cells; [1]): 5.87
- IL-18 gene relative expression (human PBMC cells; [1]): 0.19
- TNF-α gene relative expression (human PBMC cells; [1]): 2.91
- CCL2 gene relative expression (human PBMC cells; [2]): 0.40
- GM-CSF gene relative expression (human PBMC cells; [2]): 21.01
- IFNγ gene relative expression (human PBMC cells; [2]): 11.33
- IL-6 gene relative expression (human PBMC cells; [2]): 6.15
- IL-10 gene relative expression (human PBMC cells; [2]): 0.12
- IL-13 gene relative expression (human PBMC cells; [2]): 121.59
- MIP1a (CCL3) gene relative expression (human PBMC cells; [2]): 4.95
- fold induction at 0.01 µM (human PBMC cells; read-out: CCL2 gene relative expression, 0.01 μM, 4 h, vs DMSO): 1.81
- fold induction at 0.03 µM (human PBMC cells; read-out: CCL2 gene relative expression, 0.03 μM, 4 h, vs DMSO): 6.53
- fold induction at 0.01 µM (human PBMC cells; read-out: GM-CSF gene relative expression, 0.01 μM, 4 h, vs DMSO): 1
- fold induction at 0.03 µM (human PBMC cells; read-out: GM-CSF gene relative expression, 0.03 μM, 4 h, vs DMSO): 1.88
- fold induction at 0.01 µM (human PBMC cells; read-out: IFN-α gene relative expression, 0.01 μM, 4 h, vs DMSO): 0.73
- fold induction at 0.03 µM (human PBMC cells; read-out: IFN-α gene relative expression, 0.03 μM, 4 h, vs DMSO): 1.21
- fold induction at 0.1 µM (human PBMC cells; read-out: IFN-α gene relative expression, 0.10 μM, 4 h, vs DMSO): 0.8
- fold induction at 0.01 µM (human PBMC cells; read-out: IFNγ gene relative expression, 0.01 μM, 4 h, vs DMSO): 1.46
- fold induction at 0.03 µM (human PBMC cells; read-out: IFNγ gene relative expression, 0.03 μM, 4 h, vs DMSO): 1.49
- fold induction at 0.01 µM (human PBMC cells; read-out: IL-1β gene relative expression, 0.01 μM, 4 h, vs DMSO): 0.38
- fold induction at 0.03 µM (human PBMC cells; read-out: IL-1β gene relative expression, 0.03 μM, 4 h, vs DMSO): 0.94
- fold induction at 0.1 µM (human PBMC cells; read-out: IL-1β gene relative expression, 0.10 μM, 4 h, vs DMSO): 3
- fold induction at 0.01 µM (human PBMC cells; read-out: IL-2 gene relative expression, 0.01 μM, 4 h, vs DMSO): 1.32
- fold induction at 0.1 µM (human PBMC cells; read-out: IL-2 gene relative expression, 0.10 μM, 4 h, vs DMSO): 4.98
- fold induction at 0.03 µM (human PBMC cells; read-out: IL-4 gene relative expression, 0.03 μM, 4 h, vs DMSO): 1.19
- fold induction at 0.1 µM (human PBMC cells; read-out: IL-4 gene relative expression, 0.10 μM, 4 h, vs DMSO): 2.78
- fold induction at 0.01 µM (human PBMC cells; read-out: IL-6 gene relative expression, 0.01 μM, 4 h, vs DMSO): 0.57
- fold induction at 0.03 µM (human PBMC cells; read-out: IL-6 gene relative expression, 0.03 μM, 4 h, vs DMSO): 1.23
- fold induction at 0.01 µM (human PBMC cells; read-out: IL-8 gene relative expression, 0.01 μM, 4 h, vs DMSO): 0.44
- fold induction at 0.03 µM (human PBMC cells; read-out: IL-8 gene relative expression, 0.03 μM, 4 h, vs DMSO): 0.66
- fold induction at 0.1 µM (human PBMC cells; read-out: IL-8 gene relative expression, 0.10 μM, 4 h, vs DMSO): 0.44
- fold induction at 0.01 µM (human PBMC cells; read-out: IL-10 gene relative expression, 0.01 μM, 4 h, vs DMSO): 1.59
- fold induction at 0.03 µM (human PBMC cells; read-out: IL-10 gene relative expression, 0.03 μM, 4 h, vs DMSO): 0.86
- fold induction at 0.01 µM (human PBMC cells; read-out: IL-12p40 gene relative expression, 0.01 μM, 4 h, vs DMSO): 0.34
- fold induction at 0.03 µM (human PBMC cells; read-out: IL-12p40 gene relative expression, 0.03 μM, 4 h, vs DMSO): 0.38
- fold induction at 0.01 µM (human PBMC cells; read-out: IL-12p70 gene relative expression, 0.01 μM, 4 h, vs DMSO): 1.05
- fold induction at 0.03 µM (human PBMC cells; read-out: IL-12p70 gene relative expression, 0.03 μM, 4 h, vs DMSO): 0.96
- fold induction at 0.1 µM (human PBMC cells; read-out: IL-12p70 gene relative expression, 0.10 μM, 4 h, vs DMSO): 0.74
- fold induction at 0.01 µM (human PBMC cells; read-out: IL-13 gene relative expression, 0.01 μM, 4 h, vs DMSO): 0.37
- fold induction at 0.01 µM (human PBMC cells; read-out: IL-18 gene relative expression, 0.01 μM, 4 h, vs DMSO): 0.63
- fold induction at 0.1 µM (human PBMC cells; read-out: IL-18 gene relative expression, 0.10 μM, 4 h, vs DMSO): 0.05
- fold induction at 0.01 µM (human PBMC cells; read-out: ISG15 gene relative expression, 0.01 μM, 4 h, vs DMSO): 0.94
- fold induction at 0.03 µM (human PBMC cells; read-out: ISG15 gene relative expression, 0.03 μM, 4 h, vs DMSO): 0.97
- fold induction at 0.1 µM (human PBMC cells; read-out: ISG15 gene relative expression, 0.10 μM, 4 h, vs DMSO): 1.57
- fold induction at 0.01 µM (human PBMC cells; read-out: MIP1a (CCL3) gene relative expression, 0.01 μM, 4 h, vs DMSO): 1.29
- fold induction at 0.03 µM (human PBMC cells; read-out: MIP1a (CCL3) gene relative expression, 0.03 μM, 4 h, vs DMSO): 1.67
- fold induction at 0.01 µM (human PBMC cells; read-out: MX1 gene relative expression, 0.01 μM, 4 h, vs DMSO): 0.77
- fold induction at 0.03 µM (human PBMC cells; read-out: MX1 gene relative expression, 0.03 μM, 4 h, vs DMSO): 0.65
- fold induction at 0.1 µM (human PBMC cells; read-out: MX1 gene relative expression, 0.10 μM, 4 h, vs DMSO): 1.06
- fold induction at 0.01 µM (human PBMC cells; read-out: OAS1 gene relative expression, 0.01 μM, 4 h, vs DMSO): 0.85
- fold induction at 0.03 µM (human PBMC cells; read-out: OAS1 gene relative expression, 0.03 μM, 4 h, vs DMSO): 0.55
- fold induction at 0.1 µM (human PBMC cells; read-out: OAS1 gene relative expression, 0.10 μM, 4 h, vs DMSO): 0.71
- fold induction at 0.01 µM (human PBMC cells; read-out: TNF-α gene relative expression, 0.01 μM, 4 h, vs DMSO): 1.34
- fold induction at 0.1 µM (human PBMC cells; read-out: TNF-α gene relative expression, 0.10 μM, 4 h, vs DMSO): 6.52

Compound: CC1=C[C@H]2[C@@]3(O)[C@H](C)C[C@]4(OC(=O)[C@@H](N)Cc5ccccc5)[C@H]([C@@H]3C=C(CO)C[C@]2(O)C1=O)C4(C)C
- EC50 (NFκB; Homo sapiens, HeLa): 200 to 600 nM

Compound: TNF-α [reference compound]
- activation of NFκB luciferase reporter gene expression above DMSO control (NFκB; 10 ng/mL): ~10 fold
